Test results reported in a melting point compilation (Tetko et al.; mined from patent text by program, amines drawn as free bases though some values may be those of a salt).

SMILES	melting point
O=C(Nc1ccccc1)NN1CCCOC1=O	204 to 207 °C
COc1cccc2c1CC[C@@H](O)[C@@H]2N1CCCC1 (relative stereo)	113 to 115 °C
CC(C(=O)O)c1ccc2c(c1)C(=O)Cc1cc(N)ccc1S2 (stereo not given)	189 to 191 °C
Cc1nc2cccc3n(CCCNS(=O)(=O)C(F)(F)F)c(=O)c1n23	168 to 169 °C
Cc1c(C)c2c(c(C)c1O)CCC(C)(O)O2 (stereo not given)	105 to 107 °C
CC(C)(C)c1cc(NC(=O)NCCc2ccc([N+](=O)[O-])cc2)cc(C(C)(C)C)c1O	185 to 187 °C
COc1cccc2c1CN(c1nc3c(cc1F)c(=O)c(C(=O)O)cn3C1CC1)C2	> 300 °C
CC(=O)N1CCSc2ccccc2C1	69 to 70 °C
COc1ccccc1OCC1SCCN1C(=S)CC(C)=O (stereo not given)	89 to 91 °C
CCOC(=O)Cc1csc(-c2ccccc2O)n1	35.5 to 36.5 °C
C=C(C)C(=O)OCCNC(=O)Nc1ccc(C(=O)O)c(O)c1	208 to 210 °C
Clc1ccc(-c2n[nH]cc2Cl)cc1	158 °C
CN1CCC(NC(=O)c2cc(Cl)ccc2F)CC1	143 to 145 °C
CN(C)c1ccc(-c2nc(C#N)c(C#N)nc2C#N)cc1	198 to 200 °C
CCCCN(CCCC)c1ccc(C=Cc2cc(C)c(C=CC3=C(C#N)C(=C(C#N)C#N)OC3(C)C)cc2C)c(OC)c1	242 to 244 °C
CC(Cc1cccc(NC(N)=O)c1)NC=O (stereo not given)	133 to 136 °C
CS(=O)(=O)c1ccc(C(=O)CC(=O)C2CC2)c(Cl)c1-c1nccs1	146 to 147 °C
NC(=O)C1(CCCN2CCCCC2)CC=CCC1c1ccccc1 (stereo not given)	121 to 122 °C
C#CCOc1cc(-c2nn(C)c(S(C)=O)c2C)c(F)cc1Cl (stereo not given)	93 to 96 °C
CCOc1nc(-c2cc(NC(=O)c3ccc(C)c(F)c3)ccc2C)c2c(n1)N(c1c(F)cccc1F)C(=O)NC2	257 to 262 °C
O=[N+]([O-])C1=Cc2cc3c(cc2OC1)OCO3	139 °C

SMILES	melting point
Nc1ccc(CCNCCCCCCNCCc2ccc(O)c(O)c2)cc1	> 250 °C
O=C1CC[C@@H](c2ccccc2)[C@H](c2ccccc2)N1 (relative stereo)	160 to 164 °C
O=C(NCCO[N+](=O)[O-])c1csc(C(=O)NCCO[N+](=O)[O-])n1	136 to 138 °C
Cc1c(C(F)(F)F)noc1OCC(=O)O	73.5 to 76 °C
COc1ccc(C=CC(=O)NO)cc1OC	183 to 185 °C
CN(C(=O)N(CF)CF)c1nc2ccccc2s1	131 to 134 °C
Nc1ccsc1-c1nc(C2CC2)no1	51 to 54 °C
OC(Cn1ccnc1)c1ccccc1 (stereo not given)	146 to 148 °C
Cc1cc(C(C#N)=CN(C)C)ccn1	126 °C
OC1=CC(=NNc2ccc(F)cc2)CCC1	175 to 176 °C
Cc1cc(C)n(-c2cc(OS(C)(=O)=O)c(Cl)cc2F)n1	77.5 to 79 °C
CC=CCn1c(C)c(C)c2cnnc(OCc3ccc(F)cc3F)c21	93 to 95 °C
O=c1[nH]c(=O)n([C@@H]2CO[C@@H](CO)O2)cc1/C=C/Br	75 to 78 °C
COC(=O)CCC(=O)c1ccc(NC(=O)C(C)C)c(N)c1	178 °C
N#Cc1c(N2CCCCC2)cc(-c2cccs2)c2c1C(=O)c1ccccc1-2	226 to 228 °C
CC(C)(C)NCC(O)COc1cccc2c1CNC(=O)N2 (stereo not given)	204 to 205 °C
COc1ccc2cc(C3CCN(C[C@H](O)COc4cccc5sc(-c6ncc(C)o6)cc45)CC3)ccc2c1	163 to 166 °C
CC(=O)OC1CCc2oc3ccc(Br)cc3c(=O)c2C1 (stereo not given)	178 °C
C=CC1(CC(N)=O)CC(C)(C)CC(C)(C)C1	44 to 46 °C
O=C(O)c1cn(-c2ccc(F)cc2F)c2c(F)c(N3Cc4ccc(Cl)cc4C3)c(F)cc2c1=O	242 to 247 °C
Nc1nc2c(s1)CN(C(=S)NC(=O)c1ccccc1)CC2	158 to 160 °C

SMILES	melting point
COc1ccc(NC(=O)C=NO)cc1C	163 to 165 °C
CC(=O)NCc1cn(-c2ccc(-n3cncn3)c(F)c2)nn1	223 °C
Nc1ncc2c(n1)-c1ccc(Cl)cc1C(c1ccccc1F)=NC2	245 to 248 °C
CC(C)Oc1ccccc1-c1ncc(C#N)c(=O)[nH]1	182 to 184 °C
CC(C)(C)OC(=O)Oc1cc2c(s1)CCN(C(C(=O)C1CC1)c1ccccc1F)C2 (stereo not given)	98 to 99 °C
CCOC(=S)Cc1nc2ccccc2s1	45 to 48 °C
COc1ccc(C(F)(F)F)cc1-c1cccn2nc(Nc3ccc4c(c3)CCN(C(=O)OC(C)(C)C)C4)nc12	86 to 90 °C
CCOC(=O)c1nnc2n1-c1ccccc1C(c1ccccc1Cl)=NC2	235 to 237 °C
Cc1ccc(C(=O)NCC(=O)N2CC2C#N)cc1 (stereo not given)	92 to 94 °C
CN(SN1CCOCC1)C(=O)Oc1cccc2c1OC(C)(C)C2	75 to 78 °C
CNC(=O)[C@H](NC(=O)c1ccc(F)cc1C(F)(F)F)[C@@H](CN)c1ccccc1 (racemic)	188 °C
COC(=O)c1ccc(C(=O)N2CCN(c3ncccc3[N+](=O)[O-])CC2)cc1	149 to 152 °C
CC(C)CN1CC(O)C(O)C(O)C1CO (stereo not given)	192 to 194 °C
Cc1c(C(=O)O)sc2c(Br)cccc12	311 to 312 °C
CCOC(=O)c1cn(N)c2nc(C)ccc2c1=O	173 to 174 °C
Cc1ccc2c(c1)C(=O)c1ccc(C(=O)O)cc1S2(=O)=O	357 °C
NC(=O)C1(N)CCCCC1	99 to 102 °C
CC12CCC(C1)C1(C)Oc3ccc(C=O)cc3C21C (stereo not given)	145 °C
COc1cc(NC(=O)CCCCCN2CCN(C)CC2)c2nccc(C)c2c1	104 to 107 °C
CC[C@H](C)[C@H](N)C(=O)N[C@@H](Cc1ccc(OC(C)(C)C)cc1)C(=O)N[C@@H](C)C(=O)NCc1c(OC)ccc2c1Oc1c(ccc(OC)c1CC(=O)O)C2(C)C	146 to 149 °C

Results, then the compound that gave them:

melting point	SMILES
> 260 °C	O=C1c2ccccc2C(=O)c2[nH]c(-c3ccccc3)nc21
172 to 173 °C	O=c1ccn(-c2cccc(C(F)(F)F)c2)nc1-c1nnnn1-c1ccccc1
205 °C	CN(C)c1ccc(C(NC(c2ccccc2)c2ccccc2)P(O)O)cc1 (stereo not given)
127 to 128 °C	COc1cc(OC)nc(N(C(=S)Oc2ccccc2)C(=S)Oc2ccccc2)n1
126 to 128 °C	CCON=C(CC)C1=C(O)CC(c2ccc(Sc3ccc(S(C)(=O)=O)cn3)cc2)CC1=O (stereo not given)
87 to 89 °C	O=C(O)C(Cc1ccccc1)Oc1c(Br)cc(-c2ccc(-c3c(Cc4ccccc4)sc4ccccc34)cc2)cc1Br (stereo not given)
253 to 254 °C	COC(=O)c1cc(NC(=O)c2ccc(Cl)cc2)c2cc(Cc3ccc(F)cc3)cnc2c1O
41 to 43 °C	O=C(c1ccccc1)c1ccc(Cl)cc1Cl
236 to 237 °C	NC(=O)Cn1cc2c(c1)-c1ccc(Cl)cc1C(c1ccccc1)=NC2
100 to 101 °C	CC(CCCCCOCCc1ccc(N(C)C)cc1)NCc1c(CO)ccc(O)c1CO (stereo not given)
> 200 °C	CN(C)CCOCc1ccc2[nH]nc(S(=O)(=O)c3cccc4ccccc34)c2c1
165 °C	Cc1cccc(S(=O)(=O)n2c(CCCC(=O)O)cc3nc(Cl)ccc32)c1
175 to 182 °C	C(=C\c1cc(/C=C/c2ccc3cc[nH]c3c2)n[nH]1)/c1ccc(Oc2ccccc2)cc1
151 to 152 °C	CCOC(=O)c1cc(SCc2ccccc2)c(Sc2ccccc2)c(S(N)(=O)=O)c1
117 to 119 °C	CCN(CC)CCN1Cc2nc3ccccc3c(=O)n2-c2ccccc2C1=O
154 to 155 °C	Cc1nc(N2CCCC(Cc3ccc(F)cc3)C2=O)sc1C(=O)NCc1ccccc1 (stereo not given)
110 to 112 °C	CCc1nc2c(cnn2CC)c(NC2CCOCC2)c1CNC(=O)c1cccc(C(=O)NCc2ccc(OC)c(-c3cccc(CN4CCNC(C)C4)c3)c2)c1 (stereo not given)
270 to 272 °C	CC(=C1SC(=O)NC1=O)c1ccc(OCCOc2c(-c3ccc(F)c(F)c3)n(C)c3cc(F)ccc3c2=O)cc1
150 to 153 °C	N#Cc1ccccc1-c1ccc(CN2C(=O)c3ccccc3C2=O)cc1

melting point	SMILES
74 to 75 °C	CCCCOC1C=CC(=O)N1S(=O)(=O)c1ccccn1 (stereo not given)
180 to 182 °C	COc1cc2c(cc1SCC(=O)O)oc1ccccc12
270 °C	O=S1CCN(CC2CN=C(c3cc4cccc(NS(=O)(=O)c5ccccn5)c4[nH]3)S2)CC1 (stereo not given)
93 to 95 °C	O=S(=O)(NCC1CCN(C[C@H]2COc3ccc(Br)cc3O2)CC1)c1cccc(Cl)c1Cl
97 to 99 °C	CCOC(=O)C1=C(C)N=C(SCc2ccc(OC)cc2)N(C(=O)OC(C)C)C1c1cccc(Cl)c1Cl (stereo not given)
188 to 190 °C	CCc1c(S(=O)(=O)c2ccc(O)cc2)cnn1C
201 to 202 °C	N=C(N)c1cccc(CN(C(=O)Nc2ccc(-c3ccccc3S(N)(=O)=O)cc2)c2ccccc2)c1
107 to 109 °C	COc1ccc(CC(=O)c2ccc(F)cc2)cc1
253 °C	O=c1cc(-c2ccccc2)c2cc(C(c3ccccc3)n3ccnc3)ccc2[nH]1 (stereo not given)
143 to 146 °C	Cc1cccc2nc3c(cc12)sc1cccc(Cl)c13
150 to 154 °C	CNc1cccc(C#CCCn2nc3ccccc3n2)n1
148 to 162 °C	CCCCC1(CCCC)CS(=O)(=O)c2ccc(N(C)C)cc2[C@@H](c2ccc(OCCCCCN(CC(=O)O)CC(=O)O)cc2)[C@H]1O
94 to 96 °C	CC(C)Cn1c(=O)n(C)c(=O)c2c(SCCCN=[N+]=[N-])c(Cc3cccc4ccccc34)sc21
97 to 100 °C	CCOC(=O)c1c(-c2ccc(F)cc2)cc(-c2ccccc2)n1C(C)C
212 °C	CCCCNS(=O)(=O)c1cc(C(=O)O)cc(NCc2ccccc2)c1Oc1ccccc1
156 to 158 °C	COc1ccc(N2CCOCC2)c2sc(C(=O)NCc3ccccc3)nc12
226 °C	CCNS(=O)(=O)c1cccc(NC(=O)c2cnn3c(C(F)(F)F)cc(-c4ccc(C(F)(F)F)c(OCC)c4)nc23)c1
131 to 132 °C	O=C(O)CCCCCc1cncc2ccccc12
198 to 200 °C	CCc1cc(OCc2nc3ccccc3o2)c(=O)[nH]c1C
